≈ marks a conversion by molar mass, not a printed value.
Details: buffer; pH 7.4; 200.0 µM

solubility kinetic | Compound
> 45.4 µg/mL | Cc1ccc2oc(C(=O)N3CCN(CCO)CC3)c(C)c2c1
> 36.3 µg/mL | CC(=O)N1CCC(c2c[nH]c3ccccc23)CC1
> 34.1 µg/mL | Nc1ccn(C2CC(O)C(CO)O2)c(=O)n1 (centres undefined)
40.8 µg/mL (≈ 110 µM) | COc1ccccc1N1CCN(CCN2C(=O)C3CCCCN3C2=O)CC1 (centres undefined)
> 52.2 µg/mL | Cc1nc(C(=O)NNC(=O)c2cccc(Cl)c2)c(C(F)(F)F)o1
< 0.3 µg/mL | O=C(Nc1cc([N+](=O)[O-])ccc1F)c1ccc2ccccc2c1
37.3 µg/mL (≈ 128 µM) | COCC1CCN(C(=O)c2oc3c(F)cccc3c2C)C1 (centres undefined)
39.8 µg/mL (≈ 148 µM) | O=C(/C=C/c1c(F)cccc1Cl)N1CCOCC1
28.9 µg/mL (≈ 95.9 µM) | COC(=O)c1cc(C(=O)OC)n(Cc2ccc(C)cc2)c1C
> 48.5 µg/mL | CCO/C=C1/C(=O)N(c2ccc(OC)cc2)C(=O)c2ccccc21
6.5 µg/mL (≈ 20.5 µM) | CC(C)CN=Cc1c(O)c([N+](=O)[O-])cc2oc3c(c12)CCCC3
> 44.5 µg/mL | O=[N+]([O-])c1ccccc1S(=O)(=O)NC1CC2CCC1C2 (centres undefined)
> 39.3 µg/mL | CC(OC(=O)c1ccncc1)C(=O)NC1CCCC1 (centres undefined)
42.1 µg/mL (≈ 134 µM) | COc1cc(CN2CCc3ccccc3C2)cc([N+](=O)[O-])c1O
34.9 µg/mL (≈ 149 µM) | Cc1ccccc1NC(=S)NC1CCCC1
> 45 µg/mL | Cl.O=C(OCC1CCNCC1)c1ccc2c(c1)OCO2
32.9 µg/mL (≈ 130 µM) | CN1CCCN(C(=O)c2ccc(Cl)cc2)CC1
0.4 µg/mL (≈ 1.11 µM) | COc1ccc(C(=O)Nc2ccc(NC(=O)Cc3ccccc3)cn2)cc1
15.9 µg/mL (≈ 47.4 µM) | CCCNC(=O)COC(=O)c1ccc(N2CCCC2)c([N+](=O)[O-])c1
> 47.5 µg/mL | Cc1ccc(C2=NN(CC(=O)NCCN(C)C)C(=O)CC2)cc1
> 38.9 µg/mL | CCNC(=O)CCc1nc(-c2ccc(C)cc2)no1
0.7 µg/mL (≈ 2.3 µM) | Cc1ccc(C(=O)NC23CC4CC(CC(C4)C2)C3)c(Cl)c1
> 47.2 µg/mL | Cc1cc(C)n(/C(=C\N(C)C)C(=O)c2cccc([N+](=O)[O-])c2)n1
38.6 µg/mL (≈ 111 µM) | FC(F)(F)c1cccc(CNC2CCN(Cc3ccccc3)CC2)c1

solubility kinetic | Compound
50.2 µg/mL (≈ 140 µM) | O=C(O)Cc1c(-c2ccccc2)c2cc(Br)ccc2[nH]c1=O
3.7 µg/mL (≈ 11.6 µM) | O=Cc1ccc(C(=O)OCC(=O)Nc2ccc(F)cc2F)cc1
45.9 µg/mL (≈ 147 µM) | Cc1cccc2[nH]c(CN(C)Cc3nc(CC4CC4)no3)nc12
> 41.6 µg/mL | Cc1nc(C)c(C(=O)O)c(-c2ccsc2)c1C(=O)O
23.2 µg/mL (≈ 87.5 µM) | N#Cc1ccc(Oc2c(Cl)cncc2Cl)cc1
> 35.3 µg/mL | OCC1(CO)COC(CCc2ccccc2)=N1
> 45.7 µg/mL | CCCS(=O)(=O)N1CCC(C(=O)NCCC(C)C)CC1
> 60.5 µg/mL | COc1cccc(S(=O)(=O)NCc2ccc(C(=O)N3CCN(C)CC3)cc2)c1
15.8 µg/mL (≈ 58 µM) | CC(=O)Nc1ccc(Nc2ccc([N+](=O)[O-])cn2)cc1
> 47 µg/mL | O=C(Cn1ccc([N+](=O)[O-])n1)NCCc1c[nH]c2ccccc12
29.5 µg/mL (≈ 87.7 µM) | O=C(CSCc1ccccc1Br)Nc1ccccc1
2.7 µg/mL (≈ 11.1 µM) | Cc1cccn2cc(-c3ccc(Cl)cc3)nc12
0.6 µg/mL (≈ 1.8 µM) | CCN(CC)c1ccc(NC(=O)Nc2cccc3ccccc23)cc1
36.2 µg/mL (≈ 125 µM) | COc1ccc2[nH]c(C(=O)N3CCNCC3)cc2c1OC
> 41.9 µg/mL | COCCNC(=O)COc1cccc2c1OC(C)(C)C2
41.6 µg/mL | C=CCn1c2[n+](c3ccccc3c1=O)CCCCC2.[I-]
> 52.5 µg/mL | O=C(CCNC(=O)c1ccc([N+](=O)[O-])cc1)Oc1ccc(F)c(F)c1
2.9 µg/mL (≈ 9.62 µM) | Cc1cc(C(=O)O/N=C(\N)c2ccc(C(C)(C)C)cc2)no1
> 53.2 µg/mL | Cc1ccc(Oc2ncccc2NC(=O)CCCC(=O)O)c2c1CCC2
> 39.9 µg/mL | O=C(O)C1CC(O)CN1C(=S)Nc1ccccc1 (centres undefined)
39.7 µg/mL (≈ 137 µM) | COc1ccc(NC(=O)CNC(=O)C2CCCCC2)cc1
> 47.3 µg/mL | Cc1cccc(C)c1NC(=O)CN1C(=O)NC(C)(C2CC2)C1=O (centres undefined)
0.4 µg/mL (≈ 1.06 µM) | CCOc1ccc(-c2csc3ncn(-c4ccc(OC)cc4)c(=O)c23)cc1
34.2 µg/mL (≈ 116 µM) | CC(C)(C)C(=O)Nc1c(Cl)cccc1OC(F)(F)F

solubility kinetic | Compound
> 36.6 µg/mL | Cc1ccc2[nH]c(C(=O)N3CCOCC3)cc2c1
> 50.8 µg/mL | CNC(=S)N(CCc1c(C)[nH]c2ccccc12)Cc1cccnc1
4.6 µg/mL (≈ 13.8 µM) | O=C(Nc1ccccc1N1CCOCC1)c1ccc([N+](=O)[O-])s1
< 0.4 µg/mL | Cc1nc(-c2ccc(NC(=O)c3ccc(Br)o3)cc2)cs1
< 0.7 µg/mL | O=C(Nc1ccccc1)c1ccccc1OCc1ccc(F)cc1
> 43.4 µg/mL | Nc1cc(C(=O)O)ccc1Sc1ccccc1C(=O)O
> 49 µg/mL | CC1CCN(C(=O)CNC(=O)c2cccc(OC(F)F)c2)CC1
> 48 µg/mL | CC(=O)C1C(c2ccc(Cl)cc2)c2c(noc2C)CC1(C)O (centres undefined)
37 µg/mL (≈ 118 µM) | COC(=O)c1cc(Sc2c(Cl)cccc2Cl)ccn1
11.6 µg/mL (≈ 39.6 µM) | COc1ccccc1CNc1ccc(Br)cn1
> 34.8 µg/mL | Cc1nn(C(=O)/C(C#N)=C/N(C)C)c(C)c1C
2.2 µg/mL (≈ 7.4 µM) | CN(c1ccccc1)S(=O)(=O)c1cccc2ccccc12
> 44.6 µg/mL | CCc1noc(C)c1C(=O)NCCc1c[nH]c2ccccc12
1.3 µg/mL (≈ 4.62 µM) | C=CCOc1ccc(C2NC(=O)c3ccccc3O2)cc1 (centres undefined)
2.2 µg/mL (≈ 6.52 µM) | COc1cc(SC)ccc1C(=O)OCC(=O)NC1CCCCC1
> 41.4 µg/mL | CC(=O)N/C(=C\c1ccccc1)C(=O)NC(C)C(=O)O (centres undefined)
> 50.6 µg/mL | COc1ccc(NC(=O)CCC(=O)N2CCOCC2)c([N+](=O)[O-])c1
> 47.2 µg/mL | CS(=O)(=O)N1CCC(C(=O)NCc2ccc(F)cc2)CC1
> 49.9 µg/mL | Cc1ccc(NC(=O)NC(=O)CN2CCC(C(N)=O)CC2)c(C)c1
13.2 µg/mL (≈ 42.3 µM) | O=C(NC(=S)Nc1cccc2cc(O)ccc12)c1ccco1
> 49 µg/mL | CCOC(=O)C(=O)N/N=C(/c1ccccc1)c1ccc(OC)cc1
> 38.2 µg/mL | CC(C)(CCO)NC(=S)NC1CC2C=CC1C2 (centres undefined)
> 46.4 µg/mL | Cc1ccc(N=C(NO)c2cnccc2C(F)(F)F)c(C)c1
> 48.7 µg/mL | O=C(C1CCCCCC1)N1CC[C@@H](N2CCC(O)CC2)[C@H](O)C1

solubility kinetic | Compound
44.6 µg/mL (≈ 142 µM) | Cc1cc(C)c(S(=O)(=O)c2cc(F)ccc2C)c(Cl)n1
31.2 µg/mL (≈ 115 µM) | O=C(CSC1=NCCS1)c1ccc(Cl)cc1
> 35.8 µg/mL | C[C@H](N)c1nnc(SCC(N)=O)o1.Cl
< 0.3 µg/mL | CN1C(=O)OC(C)(C)C1=O
29.4 µg/mL (≈ 113 µM) | CCc1ccc(N2C(=O)C3CCCN3C2=S)cc1 (centres undefined)
0.4 µg/mL (≈ 1.16 µM) | Oc1ccccc1N1CCN(C(c2ccccc2)c2ccccc2)CC1
48.4 µg/mL (≈ 131 µM) | CC1CCN(C(=O)c2ccc(N3C(=O)C4CCC(C)CC4C3=O)cc2)CC1 (centres undefined)
4.2 µg/mL (≈ 12.2 µM) | CN(C)c1cccc(C(=O)N(Cc2ccccc2)Cc2ccccc2)c1
52.8 µg/mL | CN(C)c1cc[n+](CC(=O)c2ccc(Br)cc2)cc1.[Cl-]
25.6 µg/mL (≈ 75.6 µM) | CCOC(=O)N1CCN(CC(c2ccccc2)c2ccccc2)CC1
> 54.2 µg/mL | CCOCCCNC(=O)c1oc2ccc3c(c2c1C)C(O)CC(C)(C)O3 (centres undefined)
> 45.6 µg/mL | Cc1ccc2nsnc2c1NC(=O)c1ccc([N+](=O)[O-])o1
20.1 µg/mL (≈ 87.3 µM) | COc1ccc(COc2cccnc2N)cc1
> 40.8 µg/mL | COc1ccc(NS(=O)(=O)N2CCOCC2)cc1
4.4 µg/mL (≈ 13.4 µM) | CC(C)CNC(=O)c1ccc2c(c1)C(=O)N(C1CCCCC1)C2=O
57.4 µg/mL (≈ 147 µM) | O=C(Nc1ccc(C(=O)c2ccc(C(=O)O)c(C(=O)O)c2)cc1)c1ccccc1
0.7 µg/mL (≈ 2.4 µM) | Cc1c(C(=O)N2c3ccccc3CC2C)oc2ccccc12 (centres undefined)
19.3 µg/mL (≈ 63.2 µM) | Oc1c(C=Nc2cccc3nsnc23)ccc2ccccc12
3.1 µg/mL (≈ 9.5 µM) | NS(=O)(=O)c1ccc(NC(=O)c2cccc3ccccc23)cc1
> 50.2 µg/mL | CCc1ccc(N(CC)C(=O)c2cn(C)c(=O)c3ccccc23)cc1
9.6 µg/mL (≈ 23.8 µM) | COc1ccccc1NS(=O)(=O)c1cc(C(=O)N2CCCCCC2)ccc1C
0.4 µg/mL (≈ 1.17 µM) | CN(c1ccccc1)c1cc(Br)nc(Br)c1
> 30 µg/mL | C=CCn1c(C)nc2ccccc2c1=O
22.4 µg/mL (≈ 115 µM) | Cc1nc2ccccc2c2ncccc12

solubility kinetic | Compound
> 49.3 µg/mL | CCOC(=O)CNC(=O)N1c2ccccc2Sc2ccccc21
38.8 µg/mL (≈ 144 µM) | COC(=O)c1scc(C)c1NC(=O)/C=C/C(=O)O
> 51.4 µg/mL | O=C(C1CCN(S(=O)(=O)c2cccs2)CC1)N1CCCCC1
< 0.7 µg/mL | COc1ccc(CNC(=O)c2cc(=O)c3cc(C)ccc3o2)cc1
19.2 µg/mL (≈ 63.9 µM) | COc1ccc(NC(=S)NC(=O)Cc2ccccc2)cc1
45.4 µg/mL (≈ 138 µM) | CC(C)c1ccc(CNC(=O)C(=O)NCCCn2ccnc2)cc1
11.4 µg/mL (≈ 34.2 µM) | O=C(Nc1ccc(OC(F)(F)F)cc1)c1ccc2nccnc2c1
16.9 µg/mL (≈ 48.5 µM) | NC(=O)c1ccsc1NC(=O)COC(=O)CCOc1ccccc1
> 50.1 µg/mL | O=C(CCCNC(=O)c1ccc(Cl)cc1)Nc1ncccc1O
5.4 µg/mL (≈ 15.1 µM) | COc1ccc(CCNC(=O)COC(=O)/C=C/c2cccc(F)c2)cc1
> 48.9 µg/mL | O=C(O)/C(=C/c1ccco1)NC(=O)c1ccc(Br)o1
7.9 µg/mL (≈ 23.3 µM) | CCCCC(=O)Nc1ccc(C(=O)N(CC)c2ccccc2C)cc1
2.7 µg/mL (≈ 8.22 µM) | CCOC(=O)c1cc(C(=O)NC(C)c2ccccc2)c(C)[nH]c1=O (centres undefined)
> 66.2 µg/mL | CCOC(=O)C1=C(CC)Nc2ccccc2N/C1=N\S(=O)(=O)c1cccc(C(C)=O)c1
> 55.1 µg/mL | Cc1ccc(C(=O)COC(=O)CN2C(=O)C3C4C=CC(C4)C3C2=O)cc1C (centres undefined)
> 39 µg/mL | O=C(COc1cccc(Cl)c1Cl)NC1CC1
1.2 µg/mL (≈ 4.02 µM) | O=C(Nc1ccc2[nH]c(=O)[nH]c2c1)c1cccc([N+](=O)[O-])c1
> 49.7 µg/mL | CN(CC1COc2ccccc2O1)C(=O)CSc1ncccn1 (centres undefined)
27.3 µg/mL (≈ 104 µM) | CCCCNC(=O)c1cc2cccc([N+](=O)[O-])c2[nH]1
> 46.3 µg/mL | COc1ccc(N2CCN(C(=O)COCC(=O)O)CC2)cc1
74.2 µg/mL (≈ 147 µM) | CC1CCCC(C)N1C(=O)COC(=O)c1ccc(Br)c(S(=O)(=O)N2CCOCC2)c1 (centres undefined)
18.3 µg/mL (≈ 56.8 µM) | COc1ccc(/C=C(\C#N)C(=O)NC(C)c2ccccc2)cc1O (centres undefined)
21.9 µg/mL (≈ 59.3 µM) | Cc1nc(NC(=O)COC(=O)c2ccc(CO)cc2)c(Cl)cc1Cl
